Test results taken from patent publication US5219884A, “Immunosuppressant” (Taito Co., Ltd., priority 1990, dated 1993).
In brackets after ≈: the same amount, converted by molar mass. Like-named read-outs stand apart in the source and are kept apart here.

Legend:
[1] = tested on: human allogenic MLR (peripheral blood lymphocytes); assay: human allogenic MLR-suppressive activity; format: cell-based
Protocol: The human allogenic MLR-suppressive activity was assayed as follows:
Human peripheral blood lymphocytes obtained by Ficoll-Paque density gradient centrifugation of normal human peripheral blood were suspended in the RPMI1640 medium supplemented with 10% FCS, placed in plastic dishes, and incubated at 37° C. in an atmosphere of 5% carbon dioxide for 2 hours. After termination of incubation, the supernatant after gentle pipetting was harvested and centrifuged (1000 rpm, for 5 minutes) to obtain plastic-nonadherent cells. The plastic-nonadherent cells were allowed to pass through a nylon-wool column to give nylon-nonadherent cells, and the concentration of the cell suspension was adjusted to 4×10^6 cells/ml by using the RPMI1640 culture medium supplemented with 10% FCS, and used as the responder cell suspension.
The plastic-adherent cells were removed from the plastic dish by vigorous pipetting after addition of phosphate buffered saline supplemented with 5% FCS and 0.02% disodium ethylenediamine-tetraacetic acid (EDTA). The plastic-adherent cells were treated with 40 μg/ml of mitomycin C at 37° C. for 60 minutes, washed three times, and suspended to the concentration of 4×10^6 cells/ml in the RPMI1640 culture medium supplemented with 10% FCS. The resultant suspension was used as the stimulator cell suspension. Fifty μl of the responder cell suspension from the donor A or C was mixed with 50 μl of the stimulator cell suspension from the donor B or D, to which 100 μl of the test substance was added, and cultured at 37° C. in the an atmosphere 5% carbon dioxide for 5 days.
After termination of the culture, 1.0 μCi/well of ^3 H-thymidine was added, and after 18 hours of culture, the cells were harvested by a cell-harvester. The radioactivity incorporated into the cells was measured by a liquid scintillation counter as the index of blastogenic response of lymphocytes in human allogenic MLR. The suppression of human allogenic MLR was evaluated by calculating the percent suppression by the following formula. [formula]

[2] = tested on: anti-sheep red blood cell antibody production in BALB/c mice; assay: suppression of mouse anti-sheep red blood cell antibody production (PFC); format: in vivo; settings: Experiment 1, 4 days
Protocol: (§1) Males 5- to 7-week-old BALB/c mice were immunized with sheep red blood cells (SRBC), and the spleen was resected three or four days later. By counting the plaque forming cells (PFC), suppressive effect on the production of the anti-sheep red blood cell antibody was examined as follows.
(§2) BALB/c mice were immunized with SRBC (1×10^7 cells/mouse, intravenous administration), and ISP-I in the Example 1 was administered intraperitoneally for 4 consecutive days from the day of immunization. Four days after immunization (the next day of the final administration), the spleen was resected and the anti-sheep red blood cell antibody-producing cells were determined by the direct plaque method. At the same time the body weight of the mouse, wet weight of the thymus and the spleen, and numbers of spleen cells were also determined.
as §2, with “(5×10^7” for “(1×10^7”, “the compound” for “ISP-I”, “5” for “1”, “resected,” for “resected”, “time,” for “time”

[3] = tested on: CCRF-CEM; assay: in vitro; format: cell-based, human
[4] = tested on: HL60; assay: in vitro; format: cell-based, human
[5] = tested on: KB; assay: in vitro; format: cell-based, human
[6] = tested on: PC-14; assay: in vitro; format: cell-based, human
[7] = tested on: U937; assay: in vitro; format: cell-based, human
[8] = body weight, wet weight of thymus and spleen, number of spleen cells in SRBC-immunized mice; format: in vivo, mouse; settings: for Number of spleen cells: Experiment 1; for Body weight / Wet weight spleen / Wet weight thymus: mouse, in vivo
Protocol: as §1, §2
as §2, with “(5×10^7” for “(1×10^7”, “the compound” for “ISP-I”, “5” for “1”, “resected,” for “resected”, “time,” for “time”

For `CCCCCCC(=O)CCCCCC/C=C/CC(O)C(O)C(N)(CO)C(=O)O` (centres unmarked) [Example 1], the inhibition at 0.0001 µg/mL ([1]; Homo sapiens, Lymphocyte, donor A/donor B, 0.0001 μg/ml, read-out: Suppression) was 51.8%, the inhibition at 0.001 µg/mL ([1]; Homo sapiens, Lymphocyte, donor A/donor B, 0.001 μg/ml, read-out: Suppression) was 77.7% and the inhibition at 0.01 µg/mL ([1]; Homo sapiens, Lymphocyte, donor A/donor B, 0.01 μg/ml, read-out: Suppression) was 73.3%. For the same molecule, the inhibition at 0.1 µg/mL ([1]; Homo sapiens, Lymphocyte, donor A/donor B, 0.1 μg/ml, read-out: Suppression) was 79%, the inhibition at 1 µg/mL ([1]; Homo sapiens, Lymphocyte, donor A/donor B, 1 μg/ml, read-out: Suppression) was 80.1% and the inhibition at 10 pg/mL ([1]; Homo sapiens, Lymphocyte, donor C/donor D, 0.00001 μg/ml, read-out: Suppression) was 37.7%. The inhibition at 0.0001 µg/mL ([1]; Homo sapiens, Lymphocyte, donor C/donor D, 0.0001 μg/ml, read-out: Suppression) was 44%, the inhibition at 0.001 µg/mL ([1]; Homo sapiens, Lymphocyte, donor C/donor D, 0.001 μg/ml, read-out: Suppression) was 67.9% and the inhibition at 0.01 µg/mL ([1]; Homo sapiens, Lymphocyte, donor C/donor D, 0.01 μg/ml, read-out: Suppression) was 74.8%. For the same molecule, the inhibition at 0.1 µg/mL ([1]; Homo sapiens, Lymphocyte, donor C/donor D, 0.1 μg/ml, read-out: Suppression) was 79.2%, the inhibition at 1 µg/mL ([1]; Homo sapiens, Lymphocyte, donor C/donor D, 1 μg/ml, read-out: Suppression) was 76.5% and the inhibition at 10 µg/mL ([1]; Homo sapiens, Lymphocyte, donor C/donor D, 10 μg/ml, read-out: Suppression) was 88.8%. The IC50 ([1]; Homo sapiens, Lymphocyte, read-out: 50%-inhibition concentration (IC50)) was 0.1 ng/mL (≈ 0.249 nM), the inhibition at 10 µg/mL ([1]; Homo sapiens, Lymphocyte, read-out: Suppression) was 100% and the 3H-thymidine uptake ([1]; donor A/donor B, 0.0001 μg/ml) was 12769 cpm. For the same molecule, the 3H-thymidine uptake ([1]; donor A/donor B, 0.001 μg/ml) was 7190 cpm, the 3H-thymidine uptake ([1]; donor A/donor B, 0.01 μg/ml) was 8138 cpm and the 3H-thymidine uptake ([1]; donor A/donor B, 0.1 μg/ml) was 6922 cpm. The 3H-thymidine uptake ([1]; donor A/donor B, 1 μg/ml) was 6690 cpm, the 3H-thymidine uptake ([1]; donor A/donor B, 10 μg/ml) was 1082 cpm and the 3H-thymidine uptake ([1]; donor C/donor D, 0.00001 μg/ml) was 10896 cpm. The 3H-thymidine uptake ([1]; donor C/donor D, 0.0001 μg/ml) was 9806 cpm, the 3H-thymidine uptake ([1]; donor C/donor D, 0.001 μg/ml) was 5646 cpm and the 3H-thymidine uptake ([1]; donor C/donor D, 0.01 μg/ml) was 4460 cpm. The 3H-thymidine uptake ([1]; donor C/donor D, 0.1 μg/ml) was 3613 cpm, the 3H-thymidine uptake ([1]; donor C/donor D, 1 μg/ml) was 4167 cpm and the 3H-thymidine uptake ([1]; donor C/donor D, 10 μg/ml) was 2018 cpm. For the same molecule, the “Number of PFC per 1 × 10^7 cell” value ([2]; 0.3 mg/kg/day i.p.) was 1.4 ± 0.4 × 10^3 /1 × 10^7 cell, the “Number of PFC per spleen” value ([2]; 0.3 mg/kg/day i.p.) was 0.9 ± 0.3 × 10^4 /spleen and the “Number of PFC per 1 × 10^7 cell” value ([2]; 1 mg/kg/day i.p.) was 0.5 ± 0.2 × 10^3 /1 × 10^7 cell. The “Number of PFC per spleen” value ([2]; 1 mg/kg/day i.p.) was 0.3 ± 0.1 × 10^4 /spleen, the “Number of PFC per 1 × 10^7 cell” value ([2]; 3 mg/kg/day i.p.) was 0.2 ± 0.1 × 10^3 /1 × 10^7 cell and the “Number of PFC per spleen” value ([2]; 3 mg/kg/day i.p.) was 0.1 ± 0.0 × 10^4 /spleen. It also gave an Absorbancy ([3]; 0.01 μg/ml) of 0.678, an Absorbancy ([3]; 0.1 μg/ml) of 0.709 and an Absorbancy ([3]; 1.0 μg/ml) of 0.660. It also gave an Absorbancy ([3]; 10.0 μg/ml) of 0.637, an Absorbancy ([3]; 100.0 μg/ml) of 0.013 and an Absorbancy ([4]; 0.1 μg/ml) of 0.402. For the same molecule, the Absorbancy ([4]; 1.0 μg/ml) was 0.390, the Absorbancy ([4]; 10.0 μg/ml) was 0.377 and the Absorbancy ([4]; 100.0 μg/ml) was 0.101. The Absorbancy ([5]; 0.01 μg/ml) was 0.898, the Absorbancy ([5]; 0.1 μg/ml) was 0.865 and the Absorbancy ([5]; 1.0 μg/ml) was 0.879. For the same molecule, the Absorbancy ([5]; 10.0 μg/ml) was 0.886, the Absorbancy ([5]; 100.0 μg/ml) was 0.025 and the Absorbancy ([6]; 0.01 μg/ml) was 0.801. It also gave an Absorbancy ([6]; 0.1 μg/ml) of 0.770, an Absorbancy ([6]; 1.0 μg/ml) of 0.732 and an Absorbancy ([6]; 10.0 μg/ml) of 0.751. The Absorbancy ([6]; 100.0 μg/ml) was 0.074, the Absorbancy ([7]; 0.1 μg/ml) was 0.619 and the Absorbancy ([7]; 1.0 μg/ml) was 0.567. The Absorbancy ([7]; 10.0 μg/ml) was 0.497, the Absorbancy ([7]; 100.0 μg/ml) was 0.156 and the “Number of spleen cells” value ([8]; 0.3 mg/kg/day) was 1.4 ± 0.3 × 10^8 cell. For the same molecule, the “Number of spleen cells” value ([8]; 1 mg/kg/day) was 1.3 ± 0.4 × 10^8 cell, the “Number of spleen cells” value ([8]; 3 mg/kg/day) was 1.3 ± 0.2 × 10^8 cell and the Body weight ([8]; 0.3 mg/kg/day) was 23 ± 2 g. For the same molecule, the Wet weight spleen ([8]; 0.3 mg/kg/day) was 202 ± 4 mg, the Wet weight thymus ([8]; 0.3 mg/kg/day) was 48 ± 5 mg and the Body weight ([8]; 1 mg/kg/day) was 23 ± 1 g. For the same molecule, the Wet weight spleen ([8]; 1 mg/kg/day) was 206 ± 32 mg, the Wet weight thymus ([8]; 1 mg/kg/day) was 50 ± 1 mg and the Body weight ([8]; 3 mg/kg/day) was 19 ± 1 g. The Wet weight spleen ([8]; 3 mg/kg/day) was 137 ± 17 mg and the Wet weight thymus ([8]; 3 mg/kg/day) was 25 ± 14 mg.
